pIC50: −log10 of the molar value. Like-named read-outs stand apart in the source and are kept apart here.

From patent US20250215030A1, “STAT MODULATORS AND USES THEREOF” (Recludix Pharma, Inc., priority 2022, published 2025) come the findings set out here.

The target of the experiment is T1, pSTAT3 (pY705-STAT3) (Homo sapiens, UniProt P40763).
T1 construct: host or cells: cryopreserved PBMC
Nature of the experiment: MSD-pSTAT-PBMC Assay (pSTAT3, IL-6 stimulated). Format: cell-based. The text has this: Cryopreserved Peripheral Blood Mononuclear Cells (PBMC) are from AllCells. Recombinant Human IL-4 and IL-6 are from Peprotech. Mouse monoclonal anti-STAT3 antibody, rabbit monoclonal anti-pY705-STAT3 antibody, rabbit monoclonal Anti-pY641-STAT6 antibody, and lysis buffer are from Cell Signaling Technology (CST). Mouse monoclonal anti-STAT6 antibody is from BioLegend. Assay plates, blocker, and anti-rabbit secondary antibody are from Meso Scale Discovery (MSD).
Cryopreserved PBMCs were thawed out and allowed to recover overnight in IMDM+10% heat-inactivated FBS prior to plating 50,000 (STAT3) or 25,000 (STAT6) cells per well in 96-well U-bottom tissue culture plates. Cells were treated with compound for 3 hrs, then stimulated with 10 ng/mL IL-6 (STAT3) or 1 ng/mL IL-4 (STAT6) for 10 min. Cells were then spun down and washed with ice-cold PBS prior to lysing the cell pellet with 1× lysis buffer (CST) with 1× HALT protease and phosphatase inhibitor cocktail (Thermo). Lysates were transferred to and incubated overnight at 4° C. with shaking in QuickPlex 96-well high bind assay plates (MSD) pre-coated overnight with 30 μL per well of 0.6 μg/mL mouse monoclonal anti-STAT3 antibody (STAT3) or 2 μg/mL mouse monoclonal anti-STAT6 antibody (STAT6) in 1×PBS, and pre-blocked for 1 hour with 3% Blocker-A (MSD). Captured protein in the assay plates were then washed and probed with 25 μL per well of 0.25 μg/ml rabbit monoclonal anti-pY705-STAT3 antibody (STAT3) or 0.18 μg/ml rabbit monoclonal Anti-pY641-STAT6 antibody (STAT6) in 1% Blocker-A for 1 hour at room temperature with shaking, then washed and probed with 25 ul per well of 1 ug/mi Sulfo-TAG Labeled Goat Anti-Rabbit Antibody (MSD) in 1% Blocker-A for 1 hour at room temperature with shaking. Assay plates were then washed and 150 μL of 1× Read Buffer-T (MSD) was added to each well prior to reading on an SQ120 MSD Plate Reader. Assay signal from each sample was subtracted by the signal from unstimulated control wells and normalized to DMSO control wells. IC50 values were calculated using Graph Pad Prism Dose-Response Nonlinear Regression with variable slope. For both pSTAT3 and pSTAT6 A=≤100 nM; B=>100-1000 nM; C=>1000-3000 nM; and D=>3 μM.

[1] abbreviates: PBMC, compound 3 hrs, then 10 ng/mL IL-6 for 10 min, MSD pY705-STAT3, read-out: pSTAT3.

T1 sequence (P40763 whole entry): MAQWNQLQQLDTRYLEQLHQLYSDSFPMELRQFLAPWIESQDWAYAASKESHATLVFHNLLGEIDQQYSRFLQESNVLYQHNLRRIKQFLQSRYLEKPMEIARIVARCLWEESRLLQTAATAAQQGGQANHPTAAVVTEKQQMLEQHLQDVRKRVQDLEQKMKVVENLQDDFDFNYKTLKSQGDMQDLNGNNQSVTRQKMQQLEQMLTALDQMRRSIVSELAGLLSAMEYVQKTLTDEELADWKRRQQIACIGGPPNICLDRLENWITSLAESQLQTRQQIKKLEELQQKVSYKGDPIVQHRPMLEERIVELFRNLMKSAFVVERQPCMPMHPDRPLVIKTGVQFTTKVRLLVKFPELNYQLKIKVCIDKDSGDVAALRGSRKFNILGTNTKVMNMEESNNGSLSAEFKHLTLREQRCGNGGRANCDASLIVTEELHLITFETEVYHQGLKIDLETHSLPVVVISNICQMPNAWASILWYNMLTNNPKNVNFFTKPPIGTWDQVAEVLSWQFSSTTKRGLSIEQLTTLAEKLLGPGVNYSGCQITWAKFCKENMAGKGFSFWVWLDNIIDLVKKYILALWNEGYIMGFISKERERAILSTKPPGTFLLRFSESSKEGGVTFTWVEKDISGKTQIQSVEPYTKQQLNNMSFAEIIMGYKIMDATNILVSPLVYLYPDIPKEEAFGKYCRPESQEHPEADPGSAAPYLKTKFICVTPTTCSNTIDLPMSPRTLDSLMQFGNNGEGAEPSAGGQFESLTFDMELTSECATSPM

For `CCCOC(=O)[C@H](C)N[P@@](=O)(Oc1ccccc1)[C@@H](F)c1ccc2sc(C(=O)N[C@H]3C[C@@H]4C[C@@H]4C[C@H]4CC[C@@H](C(=O)N5C[C@@H](c6cnccc6N(C)C)CC56CC6)N4C3=O)cc2c1` (single isomer, unassigned) [Compound 432], the pIC50 under setting [1] is greater than 7.00.
`CCCOC(=O)[C@H](C)N[P@@](=O)(Oc1ccccc1)[C@@H](F)c1ccc2sc(C(=O)N[C@H]3C[C@@H]4C[C@@H]4C[C@H]4CC[C@@H](C(=O)N5C[C@H](c6cnccc6N(C)C)CC56CC6)N4C3=O)cc2c1` (single isomer, unassigned) [Compound 434] showed a pIC50 greater than 7.00.
On to `CC(C)OC(=O)[C@H](C)N[P@@](=O)(Cc1ccc2sc(C(=O)N[C@H]3C[C@@H]4C[C@@H]4C[C@H]4CC[C@@H](C(=O)N5CC(C(=O)N6CCOCC6)C5)N4C3=O)cc2c1)Oc1ccccc1` (single isomer, unassigned) [Example 5], for which the pIC50 under setting [1] was 5.52 to 6.00.
As to `CC(C)OC(=O)[C@H](C)N[P@](=O)(Cc1ccc2sc(C(=O)N[C@H]3C[C@@H]4C[C@@H]4C[C@H]4CC[C@@H](C(=O)N5CC(C(=O)N6CCOCC6)C5)N4C3=O)cc2c1)Oc1ccccc1` (single isomer, unassigned) [Example 6], under setting [1], the pIC50 is 5.52 to 6.00.
In turn, `CCCOC(=O)[C@@H](C)NP(=O)(Cc1ccc2sc(C(=O)N[C@H]3C[C@@H]4C[C@]4(C)C[C@H]4CC[C@@H](C(=O)N5CC(c6cccnc6)C5)N4C3=O)cc2c1)Oc1ccccc1` (stereo in doubt) [Compound 240, propyl(((2-(((3S,6S,7aR,8aS,9aR)-8a-methyl-5-oxo-3-(3-(pyridin-3-yl)azetidine-1-carbonyl)decahydro-1H-cyclopropa[d]pyrrolo[1,2-a]azocin-6-yl)carbamoyl)benzo[b]thiophen-5-yl)methyl)(phenoxy)phosphoryl)-L-alaninate] had a pIC50 greater than 7.00.
`CCCOC(=O)[C@@H](C)NP(=O)(Cc1ccc2sc(C(=O)N[C@H]3C[C@H]4C[C@H]4C[C@H]4CC[C@@H](C(=O)N5CC(c6cnccc6C)C5)N4C3=O)cc2c1)Oc1ccccc1` (stereo in doubt) [Compound 242, propyl(((2-(((3S,6S,7aR,8aS,9aR)-3-(3-(4-methylpyridin-3-yl)azetidine-1-carbonyl)-5-oxodecahydro-1H-cyclopropa[d]pyrrolo[1,2-a]azocin-6-yl)carbamoyl)benzo[b]thiophen-5-yl)methyl)(phenoxy)phosphoryl)-L-alaninate] had a pIC50 greater than 7.00.
The same measure, in the same setting: with `CCCOC(=O)[C@@H](C)NP(=O)(Oc1ccccc1)C(F)c1ccc2sc(C(=O)N[C@H]3C[C@@H]4C[C@@H]4C[C@H]4CC[C@@H](C(=O)N5C[C@@H]6[C@H]5CCN6C(C)=O)N4C3=O)cc2c1` (stereo in doubt) [Compound 291, propyl(((2-(((3S,6S,7aS,8aR,9aR)-3-((1S,5S)-2-acetyl-2,6-diazabicyclo[3.2.0]heptane-6-carbonyl)-5-oxodecahydro-1H-cyclopropa[d]pyrrolo[1,2-a]azocin-6-yl)carbamoyl)benzo[b]thiophen-5-yl)fluoromethyl)(phenoxy)phosphoryl)-L-alaninate] the figure was greater than 7.00.
Take `CCCOC(=O)C(C)NP(=O)(Oc1ccccc1)C(F)c1ccc2sc(C(=O)N[C@H]3C[C@@H]4C[C@@H]4C[C@H]4CC[C@@H](C(=O)N5C[C@H]6[C@@H]5CCN6c5cccnc5)N4C3=O)cc2c1` (stereo in doubt) [Compound 297, propyl ((fluoro(2-(((3S,6S,7aS,8aR,9aR)-5-oxo-3-((1S,5S)-2-(pyridin-3-yl)-2,6-diazabicyclo[3.2.0]heptane-6-carbonyl)decahydro-1H-cyclopropa[d]pyrrolo[1,2-a]azocin-6-yl)carbamoyl)benzo[b]thiophen-5-yl)methyl)(phenoxy)phosphoryl)-L-alaninate]: the pIC50 under setting [1] was greater than 7.00.
Same read-out and setting: under `CCCOC(=O)C(C)NP(=O)(Oc1ccccc1)C(F)c1ccc2sc(C(=O)N[C@H]3C[C@@H]4C[C@@H]4C[C@H]4CC[C@@H](C(=O)N5C[C@@H]6[C@H]5CCN6c5cccnc5)N4C3=O)cc2c1` (stereo in doubt) [Compound 298, propyl ((fluoro(2-(((3S,6S,7aS,8aR,9aR)-5-oxo-3-((1R,5R)-2-(pyridin-3-yl)-2,6-diazabicyclo[3.2.0]heptane-6-carbonyl)decahydro-1H-cyclopropa[d]pyrrolo[1,2-a]azocin-6-yl)carbamoyl)benzo[b]thiophen-5-yl)methyl)(phenoxy)phosphoryl)-L-alaninate] stands greater than 7.00.
`CCCOC(=O)[C@H](C)NP(=O)(Oc1ccccc1)C(F)c1ccc2sc(C(=O)N[C@H]3C[C@H]4C[C@H]4C[C@H]4CC[C@@H](C(=O)N5CC(c6cnccc6N6CCOCC6)C5)N4C3=O)cc2c1` (stereo in doubt) [Compound 409, propyl(((R)-fluoro(2-(((3S,6S,7aS,8aR,9aR)-3-(3-(4-morpholinopyridin-3-yl)azetidine-1-carbonyl)-5-oxodecahydro-1H-cyclopropa[d]pyrrolo[1,2-a]azocin-6-yl)carbamoyl)benzo[b]thiophen-5-yl)methyl)(phenoxy)phosphoryl)-L-alaninate] had a pIC50 greater than 7.00.
Still for that read-out and setting: under `CCCOC(=O)[C@H](C)N[P@@](=O)(Oc1ccccc1)[C@H](F)c1ccc2sc(C(=O)N[C@H]3C[C@@H]4C[C@@H]4C[C@H]4CC[C@@H](C(=O)N5CC(c6cnccc6N(C)C)C5)N4C3=O)cc2c1` (stereo in doubt) [Compound 415, propyl((R)-((R)-(2-(((3S,6S,7aS,8aR,9aR)-3-(3-(4-(dimethylamino)pyridin-3-yl)azetidine-1-carbonyl)-5-oxodecahydro-1H-cyclopropa[d]pyrrolo[1,2-a]azocin-6-yl)carbamoyl)benzo[b]thiophen-5-yl)fluoromethyl)(phenoxy)phosphoryl)-L-alaninate] stands greater than 7.00.
In the case of `CCCOC(=O)[C@H](C)NP(=O)(Oc1ccccc1)[C@@H](F)c1ccc2sc(C(=O)N[C@H]3C[C@H]4C[C@H]4C[C@H]4CC[C@@H](C(=O)N5CC(c6cnccc6N6CC[C@H]6COC)C5)N4C3=O)cc2c1` (stereo in doubt) [Compound 417, propyl(((R)-fluoro(2-(((3S,6S,7aS,8aR,9aR)-3-(3-(4-((S)-2-(methoxymethyl)azetidin-1-yl)pyridin-3-yl)azetidine-1-carbonyl)-5-oxodecahydro-1H-cyclopropa[d]pyrrolo[1,2-a]azocin-6-yl)carbamoyl)benzo[b]thiophen-5-yl)methyl)(phenoxy)phosphoryl)-L-alaninate], the pIC50 was greater than 7.00.
Consider `O=C(OCOP(=O)(Cc1ccc2sc(C(=O)N[C@H]3C[C@@H]4C[C@@H]4C[C@H]4CC[C@@H](C(=O)N5CC(C(=O)N6CCOCC6)C5)N4C3=O)cc2c1)OCOC(=O)OC1CCOCC1)OC1CCOCC1` [Compound 130, ((((2-(((3S,6S,7aS, 8aR,9aR)-3-(3-(morpholine-4-carbonyl)azetidine-1-carbonyl)-5-oxodecahydro-1H-cyclopropa[d]pyrrolo[1,2-a]azocin-6-yl)carbamoyl)benzo[b]thiophen-5-yl)methyl)phosphoryl)bis (oxy))bis (methylene) bis(tetrahydro-2H-pyran-4-yl) bis(carbonate)], for which the pIC50 under setting [1] was less than 5.52.
